A short description of data set [1]: Half-life (T1/2) in solution at stated pH (chemical stability). The format is physicochemical.
The next data set deals with E. coli A-15119. Briefly: Protective effect in the oral treatment of infected mice, E. coli A-15119. Type of data set: in vivo. The note with it: Escherichia coli, A15119, intraperitoneal challenge E. coli A-15119, 6 × 10^6 organisms, read-out: PD50/Treatment. The procedure:
(§1) In order to illustrate the potent antibacterial activity and significant oral bioavailability of the carbapenems of the present invention, Tables I, II and III show data for in vitro activities (MIC), oral in vivo activities (PD50) and blood levels after oral administration of the representative drugs (Cmax, t1/2 and AUC), respectively.
(§2) The in vivo therapeutic efficacy of the representative compounds after oral administration to mice infected intraperitoneally with 0.5 ml of various bacterial suspension is shown in Table II. The values are given in PD50 (dose in mg/kg to give protection to 50% of the infected mice).

A further data set relates to P. mirabalis A-9900. The data set can be described thus: Protective effect in the oral treatment of infected mice, P. mirabalis A-9900. Type of data set: in vivo. The note with it: Mus musculus, intraperitoneal challenge P. mirabalis A-9900, 4 × 10^6 organisms, read-out: PD50/Treatment. The protocol:
as §1, §2

A further data set deals with S. pneumoniae A-9585. Briefly: Protective effect in the oral treatment of infected mice, S. pneumoniae A-9585. The format is in vivo. The note with it: Streptococcus pneumoniae, A9585, intraperitoneal challenge S. pneumoniae A-9585, 5 × 10^3 organisms, read-out: PD50/Treatment. The protocol: as §1, §2
A short description of data set [2]: Blood levels and half-life after oral administration in mice. The format is in vivo. The note with it: mouse, 50 mg/kg. The procedure:
In order to illustrate the potent antibacterial activity and significant oral bioavailability of the carbapenems of the present invention, Tables I, II and III show data for in vitro activities (MIC), oral in vivo activities (PD50) and blood levels after oral administration of the representative drugs (Cmax, t1/2 and AUC), respectively. Blood levels and the half-life of selected compounds of the present invention after oral administration at 50 mg/kg in mice is shown in Table III.

The test system of another data set is Str. Pneu. A9525. Briefly: Minimal Inhibitory Concentration, microtiter broth dilution, Str. Pneu. A9525. The format is cell-based. The following applies: Nutrient broth, approximately 500,000 CFU/ml, 35° C. overnight.
Description: as §1
(§3) The determination was done by using microtiter broth dilution using Nutrient broth and final bacterial inoculum of approximately 500,000 CFU/ml from overnight cultures of the bacterium. The microtiter trays were then incubated at 35° C. overnight. The MIC's were determined in μg/ml as the lowest concentration of the drug which inhibits visible growth of the bacterium.
Background: Broth dilution looks for growth in wells or tubes with falling amounts of substance.

A further data set deals with E. coli A15119. Briefly: Minimal Inhibitory Concentration, microtiter broth dilution, E. coli A15119. Type of data set: cell-based. The following applies: Escherichia coli, Nutrient broth, approximately 500,000 CFU/ml, 35° C. overnight.
Description: as §1, §3

The next data set relates to Ps. aeur. A9843. Briefly: Minimal Inhibitory Concentration, microtiter broth dilution, Ps. aeur. A9843. The format is cell-based. The note with it: Nutrient broth, approximately 500,000 CFU/ml, 35° C. overnight.
Description: as §1, §3

For the next data set, the system named is Staph. aur. PenR. The data set can be described thus: Minimal Inhibitory Concentration, microtiter broth dilution, Staph. aur. PenR. Type of data set: cell-based. The following applies: Nutrient broth, approximately 500,000 CFU/ml, 35° C. overnight.
Description: as §1, §3

Values after ≈ are worked out from the molar mass of the structure shown. Some results are limits rather than exact numbers.

With `CSC(C)SC1=C(C(=O)O)N2C(=O)[C@H]([C@@H](C)O)[C@H]2[C@H]1C` (single isomer, unassigned) [Iv-A], the half-life – broadly, how long it takes for the measured level to halve – in data set [1] (pH 2, 37° C.) was found to be 0.333 h.

`CSC(C)SC1=C(C(=O)O)N2C(=O)[C@H]([C@@H](C)O)[C@H]2[C@H]1C` (single isomer, unassigned) [Iv-B] came in with a T1/2 in [1] (pH 2, 37° C.) of 0.333 h. Further, in data set [1] (pH 7.4, 37° C.), the half-life is 56 h.

Take `CSCSC1=C(C(=O)O)N2C(=O)[C@H]([C@@H](C)O)[C@H]2C1` [Ia, Potassium or Sodium (5R,6S)-6-[1'(R)-hydroxyethyl]-3-[[(methylthio)methyl]thio]-7-oxo-1-azabicyclo[3.2.0]hept-2-ene-2-carboxylate]: the half-life in data set [1] (pH 7.4) is 20 h.

For `CSCSC1=C(C(=O)O)N2C(=O)[C@H]([C@@H](C)O)[C@H]2[C@H]1C` [Ib''], the ED50 came out at 3.5 mg/kg with E. coli A-15119, 3.6 mg/kg in the data set on P. mirabalis A-9900 and 1.4 mg/kg in the data set with S. pneumoniae A-9585. The half-life in data set [1] (pH 2) was 0.313 h; in data set [1] (pH 7.4), 75 h; in [2], 0.417 h. Besides, the AUC – broadly, concentration integrated over time – in data set [2] is 21000 ng·h/mL. For the same compound, the peak level in data set [2] (Cmax) was 27000 ng/mL.

In the case of `C[C@@H](O)[C@H]1C(=O)N2C(C(=O)O)=C(SCSc3ccc(C(=O)NN)cc3)[C@H](C)[C@H]12` [Ibb, (4R,5S,6S)-3-[[[[(p-hydrazinocarbonyl)phenyl]thio]methyl]thio]-6-[1'(R)-hydroxyethyl]-4-methyl-7-oxo-1-azabicyclo[3.2.0]hept-2-ene-2-carboxylate], the ED50 with S. pneumoniae A-9585 was found to be 16.5 mg/kg. Also, the Cmax – broadly, the highest concentration seen after dosing – in data set [2] is less than 1000 ng/mL.

The compound `C[C@@H](O)[C@H]1C(=O)N2C(C(=O)O)=C(SCSc3ccncc3)C[C@H]12` [Ic, Potassium or sodium (5R,6S)-6-[1'(R)-hydroxyethyl]-3-[[[(pyridin-4-yl)thio]methyl]thio]-7-oxo-1-azabicyclo[3.2.0]hept-2-ene-2-carboxylate] had a half-life in data set [1] (pH 7.4) of 15 h.

Turning to `Cc1nnc(SCSC2=C(C(=O)O)N3C(=O)[C@H]([C@@H](C)O)[C@H]3[C@H]2C)o1` [Icc, (4R,5S,6S)-6-[1'(R)-hydroxyethyl]-4-methyl-3-[[[(5-methyl-1,3,4-oxadiazol-2-yl)thio]methyl]thio]-7-oxo-1-azabicyclo-[3.2.0]hept-2-ene-2-carboxylate], the ED50 in the data set on E. coli A-15119 was determined as 1.4 mg/kg; in the data set on S. pneumoniae A-9585, 0.2 mg/kg. The MIC (commonly the lowest concentration that inhibits growth of the organism) with Str. Pneu. A9525 came out at 0.001 µg/mL (≈ 0.00269 µM); in the data set on E. coli A15119, 0.004 µg/mL (≈ 0.0108 µM); against Ps. aeur. A9843 it was 32 µg/mL (≈ 86.2 µM); in the data set on Staph. aur. PenR it was 0.03 µg/mL (≈ 0.0808 µM). In addition, the AUC in data set [2] turned out to be 11000 ng·h/mL. In [2], this compound registered a Cmax of 20000 ng/mL. The compound also came in with a half-life in data set [2] of 0.233 h.

`C[C@@H](O)[C@H]1C(=O)N2C(C(=O)O)=C(SCSc3ccccc3)[C@H](C)[C@H]12` [Id, (4R,5S,6S)-6-[1'(R)-hydroxyethyl]-4-methyl-3-[[(phenylthio)methyl]thio]-7-oxo-1-azabicyclo[3.2.0]hept-2-ene-2-carboxylate]: the half-life in data set [1] (pH 2) was 0.313 h; in [1] (pH 7.4) it was 100 h.

As to `Cc1nnc(SCSC2=C(C(=O)O)N3C(=O)[C@H]([C@@H](C)O)[C@H]3[C@H]2C)s1` [Idd, (4R,5S,6S)-6-[1'(R)-hydroxyethyl]-4-methyl-3-[[[(5-methyl-1,3,4-thiadiazol-2-yl)thio]methyl]thio]-7-oxo-1-azabicyclo[3.2.0]hept-2-ene-2-carboxylate], the ED50 in the data set with E. coli A-15119 came out at 3.85 mg/kg; in the data set on S. pneumoniae A-9585, 0.3 mg/kg. In addition, the MIC worked out at 0.001 µg/mL (≈ 0.00258 µM) in the data set with Str. Pneu. A9525, 0.008 µg/mL (≈ 0.0206 µM) against E. coli A15119, 32 µg/mL (≈ 82.6 µM) in the data set with Ps. aeur. A9843 and 0.016 µg/mL (≈ 0.0413 µM) with Staph. aur. PenR. The AUC in data set [2] was 10000 ng·h/mL. In data set [2], this compound displayed a Cmax of 12000 ng/mL. For the same compound, the half-life in data set [2] is 0.4 h.

As for `C[C@@H](O)[C@H]1C(=O)N2C(C(=O)O)=C(SCSc3ccccn3)C[C@H]12` [Ie, Sodium (5R,6S)-6-[1'(R)-1-hydroxyethyl]-3-[[[(pyridin-2-yl)thio]methyl]thio]-7-oxo-1-azabicyclo[3.2.0]hept-2-ene-2-carboxylate], the half-life in data set [1] (pH 7.4) is 19 h.

As for `C[C@@H](O)[C@H]1C(=O)N2C(C(=O)O)=C(SCSc3ccccn3)[C@H](C)[C@H]12` [If, Sodium (4R,5S,6S)-6-[1'(R)-hydroxyethyl]-4-methyl-3-[[[(pyridin-2-yl)thio]methyl]thio]-7-oxo-1-azabicyclo[3.2.0]hept-2-ene-2-carboxylate], the half-life in data set [1] (pH 2) was 0.6 h; in data set [1] (pH 7.4), 79 h.

Compound `C[C@@H](O)[C@H]1C(=O)N2C(C(=O)O)=C(SCSc3ccncc3)[C@H](C)[C@H]12` [Ig, (4R,5S,6S)-6-[1'(R)-hydroxyethyl]-4-methyl-3-[[[(pyridin-4-yl)thio]methyl]thio]-7-oxo-1-azabicyclo[3.2.0]hept-2-ene-2-carboxylate] showed a half-life in [1] (pH 2) of 0.567 h.

Regarding `C[C@@H](O)[C@H]1C(=O)N2C(C(=O)O)=C(SCSc3cccnc3)C[C@H]12` [Ih, Sodium (5R,6S)-6-[1'(R)-hydroxyethyl]-3-[[[(pyridin-3-yl)thio]methyl]thio]-7-oxo-1-azabicyclo[3.2.0]hept-2-ene-2-carboxylate], the half-life is 0.0333 h in [1] (pH 2) and 22 h in data set [1] (pH 7.4).

Consider `C[C@@H](O)[C@H]1C(=O)N2C(C(=O)O)=C(SCSc3cccnc3)[C@H](C)[C@H]12` [Ii, (4R,5S,6S)-6-[1'(R)-hydroxyethyl]-4-methyl-3-[[[(pyridin-3-yl)thio]methyl]thio]-7-oxo-1-azabicyclo[3.2.0]hept-2-ene-2-carboxylate], for which the half-life in data set [1] (pH 2) is 0.583 h; in [1] (pH 7.4), 74 h.

On to `C[C@@H](O)[C@H]1C(=O)N2C(C(=O)O)=C(SCSc3ccc(Cl)cc3)C[C@H]12` [Ij, (5R,6S)-6-[1'(R)-hydroxyethyl]-3-[[[(p-chlorophenyl)thio]methyl]thio]-7-oxo-1-azabicyclo[3.2.0]hept-2-ene-2-carboxylate], for which the half-life in data set [1] (pH 7.4) was 26 h.

`C[C@@H](O)[C@H]1C(=O)N2C(C(=O)O)=C(SCSc3ccc(Cl)cc3)[C@H](C)[C@H]12` [Ik, (4R,5S,6S)-6-[1' (R)-hydroxyethyl]-4-methyl-3-[[[(p-chlorophenyl)thio]methyl]thio]-7-oxo-1-azabicyclo[3.2.0]hept-2-ene-2-carboxylate]: the MIC was 0.004 µg/mL (≈ 0.01 µM) against Str. Pneu. A9525, 2 µg/mL (≈ 5 µM) in the data set with E. coli A15119, 63 µg/mL (≈ 158 µM) against Ps. aeur. A9843 and 0.03 µg/mL (≈ 0.075 µM) in the data set with Staph. aur. PenR. Also, the results for the half-life in data set [1] (pH 7.4) and in data set [2] were 97 h and 0.55 h, respectively. Moreover, the AUC in data set [2] is 34000 ng·h/mL. Further, in data set [2], the Cmax came to 40000 ng/mL.

In data set [1] (pH 7.4), `C[C@@H](O)[C@H]1C(=O)N2C(C(=O)O)=C(SC[S+](C)[O-])[C@H](C)[C@H]12` (some centres unmarked) [Im] showed a half-life of 46 h.

The compound `C[C@@H](O)[C@H]1C(=O)N2C(C(=O)O)=C(SC[S+]([O-])c3ccc(Cl)cc3)[C@H](C)[C@H]12` (stereo partly drawn) [In, (4R,5S,6S)-3-[[[(p-chlorophenyl)sulfinyl]methyl]thio]-6-[1'(R)-hydroxyethyl]-4-methyl-7-oxo-1-azabicyclo[3.2.0]hept-2-ene-2-carboxylate] gave a half-life in data set [1] (pH 7.4, 37° C.) of 106 h.

As for `C[C@@H](O)[C@H]1C(=O)N2C(C(=O)O)=C(SCSCc3cccnc3)[C@H](C)[C@H]12` [Io, (4R,5S,6S)-6-[1'(R)-hydroxyethyl]-4-methyl-3-[[[[(pyridin-3-yl)methyl]thio]methyl]thio]-7-oxo-1-azabicyclo-[3.2.0]hept-2-ene-2-carboxylate], in data set [1] (pH 7.4, 37° C.), the half-life is 77 h.

For `C[C@@H](O)[C@H]1C(=O)N2C(C(=O)O)=C(SC[S+]([O-])Cc3cccnc3)[C@H](C)[C@H]12` (stereo partly drawn) [Ip, (4R,5S,6S)-6-[1'(R)-hydroxyethyl]-4-methyl-3-[[[[(pyridin-3-yl)methyl]sulfinyl]methyl]thio]-7-oxo-1-azabicyclo[3.2.0]hept-2-ene-2-carboxylate], in data set [1] (pH 7.4, 37° C.), the half-life is 43 h.

As to `C[C@@H](O)[C@H]1C(=O)N2C(C(=O)O)=C(SCSc3ccc(Cl)c(Cl)c3)[C@H](C)[C@H]12` [Iq, (4R,5S,6S)-3-[[[(3,4-dichlorophenyl)thio]methyl]thio]-6-[1'(R)-hydroxyethyl]-4-methyl-7-oxo-1-azabicyclo-[3.2.0]hept-2-ene-2-carboxylate], the ED50 with E. coli A-15119 was 25 mg/kg. In data set [1] (pH 7.4, 37° C.), this compound showed a half-life of 99 h. In data set [2], this compound had an AUC of 24000 ng·h/mL, a Cmax of 33000 ng/mL and a half-life of 0.417 h.

As to `C[C@@H](O)[C@H]1C(=O)N2C(C(=O)O)=C(SCSc3c(F)c(F)c(F)c(F)c3F)[C@H](C)[C@H]12` [Ir, Sodium (4R,5S,6S)-6-[1'(R)-hydroxyethyl]-4-methyl-3-[[[(2,3,4,5,6-pentafluorophenyl)thio]methyl]thio]-7-oxo-1-azabicyclo[3.2.0]hept-2-ene-2-carboxylate], the half-life in data set [1] (pH 7.4, 37° C.) is 41 h.

(Values after patent US5116833A, “Antibiotic C-3 dithioacetal-substituted carbapenem compounds, compositions, and methods of use thereof” (Bristol-Myers Squibb Company, priority 1990, dated 1992).)
